From the supplement of paper PMC10307832

Columns and labels:
Assay in all cases: relative viability (nuclei count vs DMSO), 5 days (fraction); higher = more cells survive
Sorafenib + Dasatinib = compound: CNC(=O)c1cc(Oc2ccc(NC(=O)Nc3ccc(Cl)c(C(F)(F)F)c3)cc2)ccn1 [Sorafenib] + Cc1nc(Nc2ncc(C(=O)Nc3c(C)cccc3Cl)s2)cc(N2CCN(CCO)CC2)n1 [Dasatinib] (partner 0.075 µM)
In short: (§1)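 Lung cancer cell lines in 1536-well plates were dosed by pin tool the day after seeding, either with one drug alone or with a fixed anchor-drug dose plus five library-drug doses (not always all listed) in √10 steps. After 5 days, cells were fixed and their nuclei stained in one step (final 0.05% Triton X-100, 1% formaldehyde, 1 ug/ml Hoechst), then counted on 4× images. Relative viability is the nuclei count in treated wells divided by that in vehicle wells. Values are medians of duplicate plates.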

Sorafenib + Trametinib = compound: CNC(=O)c1cc(Oc2ccc(NC(=O)Nc3ccc(Cl)c(C(F)(F)F)c3)cc2)ccn1 [Sorafenib] + CC(=O)Nc1cccc(-n2c(=O)n(C3CC3)c(=O)c3c(Nc4ccc(I)cc4F)n(C)c(=O)c(C)c32)c1 [Trametinib] (partner 0.02 µM)
In short: as §1

Sorafenib + Lapatinib = compound: CNC(=O)c1cc(Oc2ccc(NC(=O)Nc3ccc(Cl)c(C(F)(F)F)c3)cc2)ccn1 [Sorafenib] + CS(=O)(=O)CCNCc1ccc(-c2ccc3ncnc(Nc4ccc(OCc5cccc(F)c5)c(Cl)c4)c3c2)o1 [Lapatinib] (partner 2 µM)
In short: as §1

Sorafenib + Foretinib = compound: CNC(=O)c1cc(Oc2ccc(NC(=O)Nc3ccc(Cl)c(C(F)(F)F)c3)cc2)ccn1 [Sorafenib] + COc1cc2c(Oc3ccc(NC(=O)C4(C(=O)Nc5ccc(F)cc5)CC4)cc3F)ccnc2cc1OCCCN1CCOCC1 [Foretinib] (partner 0.25 µM)
In short: as §1

Sorafenib + Vorinostat = compound: CNC(=O)c1cc(Oc2ccc(NC(=O)Nc3ccc(Cl)c(C(F)(F)F)c3)cc2)ccn1 [Sorafenib] + O=C(CCCCCCC(=O)Nc1ccccc1)NO [Vorinostat] (partner 1 µM)
In short: as §1

Cell Line	relative viability (Sorafenib + Dasatinib; first compound 0.08 µM)	relative viability (Sorafenib + Dasatinib; first compound 0.253 µM)	relative viability (Sorafenib + Dasatinib; first compound 2.53 µM)	relative viability (Sorafenib + Dasatinib; first compound 8 µM)	relative viability (Sorafenib + Trametinib; first compound 0.08 µM)	relative viability (Sorafenib + Trametinib; first compound 0.253 µM)	relative viability (Sorafenib + Trametinib; first compound 2.53 µM)	relative viability (Sorafenib + Trametinib; first compound 8 µM)	relative viability (Sorafenib + Lapatinib; first compound 0.08 µM)	relative viability (Sorafenib + Lapatinib; first compound 0.253 µM)	relative viability (Sorafenib + Lapatinib; first compound 2.53 µM)	relative viability (Sorafenib + Lapatinib; first compound 8 µM)	relative viability (Sorafenib + Foretinib; first compound 0.08 µM)	relative viability (Sorafenib + Foretinib; first compound 0.253 µM)	relative viability (Sorafenib + Foretinib; first compound 2.53 µM)	relative viability (Sorafenib + Foretinib; first compound 8 µM)	relative viability (Sorafenib + Vorinostat; first compound 0.08 µM)	relative viability (Sorafenib + Vorinostat; first compound 0.253 µM)	relative viability (Sorafenib + Vorinostat; first compound 2.53 µM)	relative viability (Sorafenib + Vorinostat; first compound 8 µM)
NCI-H1734	0.536	0.402	0.402	0.357	0.71	0.646	0.577	0.324	1.06	0.991	0.951	0.663	1.05	0.769	0.682	0.41	0.936	0.708	0.752	0.631
NCI-H1755	0.419	0.436	0.409	0.35	0.8	0.761	0.71	0.557	1.03	0.999	0.994	0.869	0.926	0.863	0.921	0.729	0.81	0.702	0.843	0.549
NCI-H1793	0.411	0.356	0.379	0.406	0.398	0.429	0.325	0.253	0.71	0.833	0.949	0.221	0.76	0.853	1.12	0.798	0.783	0.739	1.05	0.578
NCI-H1915	0.326	0.327	0.402	0.273	0.322	0.289	0.204	0.125	0.932	0.879	0.943	0.951	1.08	0.969	1.03	1.09	0.444	0.364	0.355	0.582
NCI-H1944	0.213	0.229	0.245	0.206	0.384	0.436	0.367	0.253	0.881	0.763	0.912	0.796	0.92	0.97	0.946	0.747	0.539	0.497	0.626	0.417
NCI-H1975	0.423	0.305	0.374	0.314	0.526	0.32	0.291	0.242	1.04	0.835	1.02	0.448		0.958	0.994	0.649	0.788	0.787	0.72	0.436
NCI-H1993	0.547	0.302	0.554	0.384	0.515	0.521	0.529	0.506	0.893	0.782		0.78	0.778	0.746	0.86	0.543	0.973	0.726	1.1	0.633
NCI-H2009	0.346	0.23	0.325	0.16	0.339	0.282	0.204	0.159	0.884	0.812	0.968	0.47	1.27	1.18	1.09	0.916	0.703	0.666	0.699	0.719
NCI-H2023	0.681	0.485	0.601	0.275	0.686	0.539	0.459	0.112		0.738	0.82	0.244	1.18	0.795	0.972	0.591	0.954	0.571	0.599	0.339
NCI-H2085	0.311	0.271	0.26	0.237	0.643	0.464	0.43	0.391		0.761	0.858	0.717	0.948	0.856	0.864	0.874	0.852	0.795	1.01	0.78
NCI-H2087	1.03	0.744	0.684	0.154	0.19	0.233	0.199	0.15	0.958	0.711	1.06	0.611	1.36	0.977	0.819	0.632	0.615	0.545	0.474	0.209
NCI-H2126	0.735	0.533	0.652	0.501	0.581	0.541	0.623	0.589	0.766	0.642	0.808	0.792	1.26	1.09	1.1	1.2	0.88	0.747	0.828	0.799
NCI-H2170	0.771	0.485	0.6	0.518	0.896	0.805	0.99	0.804	0.279	0.294	0.349	0.39	1.02	0.994	0.986	0.967	0.842	0.665	0.856	0.576
